According to patent US11779602B2, “Methods of use for CAR T cells” (ENDOCYTE, INC., priority 2018, dated 2023):

System: MDA-MB-231 tumors
Test: EC17/E2-CAR T-cell therapy in NSG mice with and without MDA-MB-231 tumors
Type: in vivo
Protocol: MDA-MB-231 tumor cells were grown in folate-deficient RPMI 1640 with 5-10% FBS at 37° C. in a 5% CO2 humidified atmosphere. MDA-MB-231 tumor cells were inoculated subcutaneously at 2.5×10^6 cells per animal. Only […] mice were inoculated and the remaining 22 mice were kept tumor-free.
EGFRt-sorted anti-FITC E2 scFv-CAR T cells were frozen in a T-cell freezing medium. Vials of frozen CAR-T cells were immediately stored at −80° C. The CAR-T cells were quickly thawed at 37° C., washed twice with PBS, and used for animal injection at 10 million viable EGFRt+ E2 CAR-T cells (CD4/CD8 at ˜1:1) per animal. A small aliquot was taken on the day infusion for flow cytometric analysis of E2-CAR T-cell phenotypes.
Mouse blood samples were processed for plasma and stored at −20° C. until use. A human TH1 cytokine panel (Biolegend, Cat. No. 740009) and a human hematopoietic stem cell cytokine panel (Biolegend, Cat. No. 740610) was used to detect human cytokines in the mouse blood. A mouse 13-plex inflammatory cytokine panel (Biolengend, No. 740150) was used to detect mouse cytokines. All analyses were performed per the manufacturer's instructions.
Whole blood cell analysis: Plasma was removed from predetermined volumes of whole EDTA treated blood and RBCs were lysed with RBC lysis solution. […] Determination of the concentration of CAR T cells in each blood sample was calculated according to Invitrogen's instructions. CAR T cells were identified as human CD3ε+ EGFRt+ events and easily distinguished and counted using the Kaluza™ flow cytometry software. The number of CAR T cells in the circulation of each infused mouse was then represented on the graphs as the total number of CAR T cells per 100 μL of whole blood analyzed. Statistical significance was determined by utilizing an unpaired, two-tailed, students t-test with significance set at p<0.05. […]

SMILES: NC1=NC2N=CC(CNc3ccc(C(=O)N[C@@H](CCC(=O)NCCNC(=S)Nc4ccc(-c5c6ccc(=O)cc-6oc6cc(O)ccc56)c(C(=O)O)c4)C(=O)O)cc3)=NC2C(=O)N1 (stereo partly shown) [EC17, FA-(γ)-ethylenediamine-FITC]
- IFN-γ production, tumor-bearing vs tumor-free mice (10 million E2 CAR-T cells, EC17 500 nmol/kg days 2 and 10, plasma 20 hours after second dose): 23 fold
- increase in circulating E2 CAR T cells per 100 uL whole blood vs cohorts without EC17 (cohorts which received EC17 stimulation): more than 10 fold
- CAR-T cell expansion by FACS in tumor-free mice (post EC17 SIW500×2 doses): no detectable CAR-T cell expansion
- cytokine production (IL2, IFN-γ, IL-10) in tumor-bearing mice (with vs without EC17 dose): EC17-dependent
